Reference: ChEMBL document CHEMBL1201862, “PubChem BioAssay data set” (2004)
Where “and” joins values, the source holds several entries; their conditions need not be identical. Equal entries are not always repeated. Calls of active or inactive are those of the source.

How the values were obtained:
[1] = target: Peroxisome proliferator-activated receptor gamma/Nuclear receptor coactivator 1 (Homo sapiens, UniProt P37231); assay: TR-FRET dose response biochemical High Throughput Screening assay for agonists of the steroid receptor coactivator 1 (SRC-1) recruitment by the peroxisome proliferator-activated receptor gamma (PPAR gamma): non-selective agonists. [Related pubchem assays (depositor defined):AID1300, AID1808, AID504735, AID631]; type: protein assay
[2] = target: Peroxisome proliferator-activated receptor gamma/Nuclear receptor coactivator 2 (Homo sapiens, UniProt P37231); assay: (§1) TR-FRET dose response biochemical High Throughput Screening assay for agonists of the steroid receptor coactivator 2 (SRC-2) recruitment by the peroxisome proliferator-activated receptor gamma (PPAR gamma): non-selective agonists. [Related pubchem assays: 1297, 1032 ]; type: functional
[3] = target: Peroxisome proliferator-activated receptor gamma/Nuclear receptor coactivator 3 (Homo sapiens, UniProt P37231); assay: as §1, with “3 (SRC-3)” for “2 (SRC-2)”, “1301 (Confirmation screen.), 1048 (Primary screen.)]” for “1297, 1032 ]”; type: functional
[4] = target: T1, Alkaline phosphatase, tissue-nonspecific isozyme (Homo sapiens, UniProt P05186); assay: human TNAP enzyme inhibitors, SAR follow-up, biochemical, luminescent, dose response (AID 1056)
T1 sequence (P05186 whole entry): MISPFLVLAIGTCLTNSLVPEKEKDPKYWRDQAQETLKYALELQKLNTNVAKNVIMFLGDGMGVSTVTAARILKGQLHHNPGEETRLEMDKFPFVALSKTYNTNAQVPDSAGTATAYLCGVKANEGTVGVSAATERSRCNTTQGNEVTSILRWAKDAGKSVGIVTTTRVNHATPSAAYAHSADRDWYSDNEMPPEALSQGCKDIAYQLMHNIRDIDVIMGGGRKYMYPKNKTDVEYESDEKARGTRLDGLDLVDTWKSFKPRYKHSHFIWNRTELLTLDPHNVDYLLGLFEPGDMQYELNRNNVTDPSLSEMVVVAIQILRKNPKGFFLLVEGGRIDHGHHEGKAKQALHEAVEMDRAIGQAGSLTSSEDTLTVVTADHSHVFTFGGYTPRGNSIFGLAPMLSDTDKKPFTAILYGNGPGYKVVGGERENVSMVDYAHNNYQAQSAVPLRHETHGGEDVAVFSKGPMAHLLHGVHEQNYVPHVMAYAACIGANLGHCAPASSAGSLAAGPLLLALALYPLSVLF

[5] = target: Glyceraldehyde-3-phosphate dehydrogenase (Homo sapiens, UniProt P04406)
[6] = HeLa cell cytotoxicity, dose response, cytotoxicity control for MgcRacGAP inhibitor project (AID 624300); type: functional
[7] = target: Induced myeloid leukemia cell differentiation protein Mcl-1 (Homo sapiens, UniProt Q07820); type: functional
Coagulation factor XII = target: T2, Coagulation factor XII (Homo sapiens, UniProt P00748); type: functional;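 further: activated factor XIIa alpha cleaving a fluorogenic AMC peptide substrate; inhibitor potency from loss of enzyme activity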
T2 sequence (P00748 whole entry): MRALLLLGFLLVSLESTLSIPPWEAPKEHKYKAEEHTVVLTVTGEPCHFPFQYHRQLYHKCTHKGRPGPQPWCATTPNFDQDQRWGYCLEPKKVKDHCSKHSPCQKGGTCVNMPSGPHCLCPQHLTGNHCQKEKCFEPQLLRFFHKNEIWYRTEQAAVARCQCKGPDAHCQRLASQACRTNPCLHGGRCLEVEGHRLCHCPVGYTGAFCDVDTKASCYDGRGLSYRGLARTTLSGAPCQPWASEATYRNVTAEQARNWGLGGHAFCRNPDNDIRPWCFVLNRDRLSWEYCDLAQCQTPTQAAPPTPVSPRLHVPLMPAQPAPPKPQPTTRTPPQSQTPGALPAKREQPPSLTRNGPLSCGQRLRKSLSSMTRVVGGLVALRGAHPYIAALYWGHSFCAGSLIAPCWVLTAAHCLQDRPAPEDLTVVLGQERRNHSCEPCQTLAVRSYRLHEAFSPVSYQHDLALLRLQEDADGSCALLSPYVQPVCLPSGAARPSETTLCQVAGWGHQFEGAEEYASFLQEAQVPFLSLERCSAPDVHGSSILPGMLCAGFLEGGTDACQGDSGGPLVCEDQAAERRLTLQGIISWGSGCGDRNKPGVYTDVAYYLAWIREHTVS

[8] = target: T3, Rac GTPase-activating protein 1 (Homo sapiens, UniProt Q9H0H5); assay: MgcRacGAP GTPase-activating activity inhibitors, confirmation, biochemical, ADP Hunter fluorescence, primary and confirmatory (AID 624330); type: functional
T3 sequence (Q9H0H5 whole entry): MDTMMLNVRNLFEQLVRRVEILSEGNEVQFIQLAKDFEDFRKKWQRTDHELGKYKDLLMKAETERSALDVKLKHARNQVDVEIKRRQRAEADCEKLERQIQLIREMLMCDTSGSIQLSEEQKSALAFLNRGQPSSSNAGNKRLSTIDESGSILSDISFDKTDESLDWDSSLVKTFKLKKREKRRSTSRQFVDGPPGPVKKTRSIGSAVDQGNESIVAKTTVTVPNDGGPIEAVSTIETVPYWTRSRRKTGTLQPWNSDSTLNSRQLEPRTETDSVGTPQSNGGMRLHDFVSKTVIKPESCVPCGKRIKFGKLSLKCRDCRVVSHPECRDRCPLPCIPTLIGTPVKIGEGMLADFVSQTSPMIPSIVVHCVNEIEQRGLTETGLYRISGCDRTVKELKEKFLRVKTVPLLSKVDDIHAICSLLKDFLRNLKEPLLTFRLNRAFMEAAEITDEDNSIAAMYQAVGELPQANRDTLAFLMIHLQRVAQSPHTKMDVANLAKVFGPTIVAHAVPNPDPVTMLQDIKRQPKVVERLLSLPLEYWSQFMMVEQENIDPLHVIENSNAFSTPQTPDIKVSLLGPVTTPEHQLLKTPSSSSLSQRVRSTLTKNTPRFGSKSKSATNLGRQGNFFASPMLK

[9] = target: DNA dC->dU-editing enzyme APOBEC-3G (Homo sapiens, UniProt Q9HC16); type: functional;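 further: Dose-response counterscreen measuring inhibition of APOBEC3G DNA deaminase activity, run while confirming APOBEC3A inhibitors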
[10] = target: DNA dC->dU-editing enzyme APOBEC-3A (Homo sapiens, UniProt P31941); assay: Dose Response confirmation of small molecule APOBEC3A DNA Deaminase Inhibitors via a fluorescence-based single-stranded DNA deaminase assay. [Related pubchem assays (depositor defined):AID493011, AID493024]; type: functional
DNA dC->dU-editing enzyme APOBEC-3A, sequence (P31941 whole entry): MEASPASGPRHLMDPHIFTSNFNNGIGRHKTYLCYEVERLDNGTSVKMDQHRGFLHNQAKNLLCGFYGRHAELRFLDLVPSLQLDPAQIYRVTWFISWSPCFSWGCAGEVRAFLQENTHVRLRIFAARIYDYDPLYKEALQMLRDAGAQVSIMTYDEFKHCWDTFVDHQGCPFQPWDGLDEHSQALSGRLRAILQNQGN

[11] = target: T4, Kappa-type opioid receptor (Homo sapiens, UniProt P41145); type: functional
T4 sequence (P41145 whole entry): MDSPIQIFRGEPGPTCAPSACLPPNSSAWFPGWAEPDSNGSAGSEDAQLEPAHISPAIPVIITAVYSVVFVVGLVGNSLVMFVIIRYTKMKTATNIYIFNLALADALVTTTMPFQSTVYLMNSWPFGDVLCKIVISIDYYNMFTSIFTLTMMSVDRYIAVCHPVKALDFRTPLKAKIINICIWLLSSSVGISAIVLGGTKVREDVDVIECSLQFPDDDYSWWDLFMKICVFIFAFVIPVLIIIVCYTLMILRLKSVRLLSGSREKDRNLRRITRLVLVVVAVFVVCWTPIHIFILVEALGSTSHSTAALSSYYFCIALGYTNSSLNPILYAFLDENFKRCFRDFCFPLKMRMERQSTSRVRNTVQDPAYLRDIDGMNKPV

[12] = C. albicans growth with fluconazole, confirmation, fluorescence, retest (AID 2467); type: functional, cell-based
[13] = cytotoxicity toward NIH3T3 fibroblasts, dose response, counter-screen, cell-based, ATP luminescence, mouse fibroblasts (AID 2010); type: functional;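 further: cells exposed to compound for about 90 hours before reading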
Exodeoxyribonuclease V = Exodeoxyribonuclease V (Escherichia coli (strain K12), UniProt P04993+P07648+P08394); assay: E. coli RecBCD inhibitors, dose response, counter-screen for AddAB inhibitor project, absorbance, V66 E. coli, mutant T4 phage (AID 492957); type: functional, cell-based, Escherichia coli str. K-12 substr. MG1655
[14] = target: ATP-dependent molecular chaperone HSP82 (Candida albicans (strain WO-1) (Yeast), UniProt C4YTQ8); assay: loss of DOC-induced GRE-beta-galactosidase reporter signal, dose response, Hsp90 inhibitor project, S. cerevisiae, luminescence (AID 2400); type: functional, cell-based;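 further: beta-galactosidase luminescence from glucocorticoid response element reporter as proxy for Hsp90 function; inhibitor potency where signal loss means Hsp90 inhibition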
[15] = target: T5, Serine/threonine-protein phosphatase (Candida dubliniensis (strain CD36 / CBS 7987 / NCPF 3949 / NRRLY-17841) (Yeast), UniProt B9W6M3); assay: calcineurin pathway inhibitors in yeast reporter, dose response, S. cerevisiae, CDRE-lacZ, luminescence, secondary (AID 2388); type: functional, cell-based;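 further: yeast reporter cells carrying a calcineurin-responsive lacZ construct stimulated with calcium chloride; luminescent beta-galactosidase reporter signal in whole cells rather than isolated phosphatase activity; potency for inhibition where a drop in reporter signal means calcineurin blockade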
T5 sequence (B9W6M3 whole entry): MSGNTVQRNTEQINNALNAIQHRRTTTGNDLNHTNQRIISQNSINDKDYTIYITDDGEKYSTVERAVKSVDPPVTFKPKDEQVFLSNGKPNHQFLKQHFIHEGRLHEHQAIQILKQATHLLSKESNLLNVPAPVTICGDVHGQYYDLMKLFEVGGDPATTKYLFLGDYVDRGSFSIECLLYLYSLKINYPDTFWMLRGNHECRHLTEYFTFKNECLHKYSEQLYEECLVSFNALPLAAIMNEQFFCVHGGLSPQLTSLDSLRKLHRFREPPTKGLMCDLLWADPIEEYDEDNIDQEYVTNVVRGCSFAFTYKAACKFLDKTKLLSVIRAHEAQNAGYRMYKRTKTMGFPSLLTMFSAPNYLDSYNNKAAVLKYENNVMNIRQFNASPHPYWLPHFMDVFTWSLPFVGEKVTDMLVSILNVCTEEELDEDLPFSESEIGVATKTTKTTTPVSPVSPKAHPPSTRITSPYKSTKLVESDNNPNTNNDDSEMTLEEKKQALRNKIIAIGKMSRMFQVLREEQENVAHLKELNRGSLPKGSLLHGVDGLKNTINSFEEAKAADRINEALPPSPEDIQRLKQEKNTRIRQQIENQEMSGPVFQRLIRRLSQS

Beta-galactosidase = Beta-galactosidase (Escherichia coli, UniProt Q8VNN2); type: functional
[16] = tested on: Streptococcus sp. 'group A'; assay: growth inhibition of control SK(-) GAS strain, dose response, counter-screen for streptokinase expression inhibitor project, luminescence, kanamycin, BacTiterGlo, confirmation (AID 1900); type: functional, organism-based
[17] = inhibitors of intracellular T. cruzi replication, confirmation, NIH3T3 host cells, beta-gal luminescence (AID 2044); type: functional, cell-based;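 further: intracellular parasites grown in NIH/3T3 mouse fibroblasts as host cells; luminescent beta-galactosidase reporter signal from transgenic T. cruzi replicating inside host cells; inhibitors lower the luminescence signal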
[18] = target: T4, Kappa-type opioid receptor; type: functional; remark: listed apart in the source
[19] = NIH-3T3 fibroblast cytotoxicity, dose response, cytotoxicity control, cell-based, fluorescence, Alamar Blue, secondary assay (AID 2327); type: functional;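 further: NIH-3T3 mouse fibroblasts cultured with fluconazole at 8 µg/mL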
INS1 = assay: beta cell apoptosis inhibitors, cytokine rescue, dose response, luminescence, retest (AID 449756); type: functional, cell-based; conditions: Rattus norvegicus;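 further: cell death triggered by IL-1 beta plus TNF-alpha plus IFN-gamma mixture; protective hits raise ATP signal compared with cytokine alone wells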
[20] = Counterscreen for AddAB inhibitors: absorbance-based bacterial cell-based high throughput dose response assay for inhibitors of bacterial viability. [Related pubchem assays (depositor defined):AID435030, AID449728, AID449731, AID488942, AID488955, AID488956]; type: functional
Streptococcus = assay: Group A Streptococcus viability loss, dose response, counter-screen for streptokinase expression inhibitor project, luminescence, BacTiterGlo (AID 1915); type: functional, organism-based;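 further: potency for reduction of bacterial viability or growth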
H4 = assay: Luminescence Cell-Based Dose Response HTS to Identify Activators of 5'UTR Stem-Loop Driven Prion Protein mRNA Translation in H4 Neuroglioblastoma Cells. [Related pubchem assays: 1829 (Project Summary), 1814 (Primary HTS)]; type: functional; conditions: Homo sapiens
[21] = Luminescence Cell-Based Dose Confirmation HTS to Identify Activators of 5'UTR Stem-Loop Driven Alpha-Synuclein mRNA Translation in H4 Neuroglioblastoma Cells. [Related pubchem assays: 1829 (Project Summary), 1814 (Primary HTS)]; type: functional
[22] = Luminescence Cell-Based Dose Response HTS to Identify Activators of Luciferase Translation or Activity in H4 […] Cells. [Related pubchem assays: 1829 (Project Summary), 1814 (Primary HTS)]; type: functional
[23] = target: T6, Voltage-gated N-type calcium channel alpha-1B subunit/Amyloid beta A4 precursor protein-binding family A member 1 (Homo sapiens, UniProt Q00975+Q02410); assay: disruptors of Mint-PDZ/N-type channel peptide interaction – biochemical, HTRF, set 2, SAR follow-up (AID 434980); type: functional
T6 sequence (Q00975 whole entry): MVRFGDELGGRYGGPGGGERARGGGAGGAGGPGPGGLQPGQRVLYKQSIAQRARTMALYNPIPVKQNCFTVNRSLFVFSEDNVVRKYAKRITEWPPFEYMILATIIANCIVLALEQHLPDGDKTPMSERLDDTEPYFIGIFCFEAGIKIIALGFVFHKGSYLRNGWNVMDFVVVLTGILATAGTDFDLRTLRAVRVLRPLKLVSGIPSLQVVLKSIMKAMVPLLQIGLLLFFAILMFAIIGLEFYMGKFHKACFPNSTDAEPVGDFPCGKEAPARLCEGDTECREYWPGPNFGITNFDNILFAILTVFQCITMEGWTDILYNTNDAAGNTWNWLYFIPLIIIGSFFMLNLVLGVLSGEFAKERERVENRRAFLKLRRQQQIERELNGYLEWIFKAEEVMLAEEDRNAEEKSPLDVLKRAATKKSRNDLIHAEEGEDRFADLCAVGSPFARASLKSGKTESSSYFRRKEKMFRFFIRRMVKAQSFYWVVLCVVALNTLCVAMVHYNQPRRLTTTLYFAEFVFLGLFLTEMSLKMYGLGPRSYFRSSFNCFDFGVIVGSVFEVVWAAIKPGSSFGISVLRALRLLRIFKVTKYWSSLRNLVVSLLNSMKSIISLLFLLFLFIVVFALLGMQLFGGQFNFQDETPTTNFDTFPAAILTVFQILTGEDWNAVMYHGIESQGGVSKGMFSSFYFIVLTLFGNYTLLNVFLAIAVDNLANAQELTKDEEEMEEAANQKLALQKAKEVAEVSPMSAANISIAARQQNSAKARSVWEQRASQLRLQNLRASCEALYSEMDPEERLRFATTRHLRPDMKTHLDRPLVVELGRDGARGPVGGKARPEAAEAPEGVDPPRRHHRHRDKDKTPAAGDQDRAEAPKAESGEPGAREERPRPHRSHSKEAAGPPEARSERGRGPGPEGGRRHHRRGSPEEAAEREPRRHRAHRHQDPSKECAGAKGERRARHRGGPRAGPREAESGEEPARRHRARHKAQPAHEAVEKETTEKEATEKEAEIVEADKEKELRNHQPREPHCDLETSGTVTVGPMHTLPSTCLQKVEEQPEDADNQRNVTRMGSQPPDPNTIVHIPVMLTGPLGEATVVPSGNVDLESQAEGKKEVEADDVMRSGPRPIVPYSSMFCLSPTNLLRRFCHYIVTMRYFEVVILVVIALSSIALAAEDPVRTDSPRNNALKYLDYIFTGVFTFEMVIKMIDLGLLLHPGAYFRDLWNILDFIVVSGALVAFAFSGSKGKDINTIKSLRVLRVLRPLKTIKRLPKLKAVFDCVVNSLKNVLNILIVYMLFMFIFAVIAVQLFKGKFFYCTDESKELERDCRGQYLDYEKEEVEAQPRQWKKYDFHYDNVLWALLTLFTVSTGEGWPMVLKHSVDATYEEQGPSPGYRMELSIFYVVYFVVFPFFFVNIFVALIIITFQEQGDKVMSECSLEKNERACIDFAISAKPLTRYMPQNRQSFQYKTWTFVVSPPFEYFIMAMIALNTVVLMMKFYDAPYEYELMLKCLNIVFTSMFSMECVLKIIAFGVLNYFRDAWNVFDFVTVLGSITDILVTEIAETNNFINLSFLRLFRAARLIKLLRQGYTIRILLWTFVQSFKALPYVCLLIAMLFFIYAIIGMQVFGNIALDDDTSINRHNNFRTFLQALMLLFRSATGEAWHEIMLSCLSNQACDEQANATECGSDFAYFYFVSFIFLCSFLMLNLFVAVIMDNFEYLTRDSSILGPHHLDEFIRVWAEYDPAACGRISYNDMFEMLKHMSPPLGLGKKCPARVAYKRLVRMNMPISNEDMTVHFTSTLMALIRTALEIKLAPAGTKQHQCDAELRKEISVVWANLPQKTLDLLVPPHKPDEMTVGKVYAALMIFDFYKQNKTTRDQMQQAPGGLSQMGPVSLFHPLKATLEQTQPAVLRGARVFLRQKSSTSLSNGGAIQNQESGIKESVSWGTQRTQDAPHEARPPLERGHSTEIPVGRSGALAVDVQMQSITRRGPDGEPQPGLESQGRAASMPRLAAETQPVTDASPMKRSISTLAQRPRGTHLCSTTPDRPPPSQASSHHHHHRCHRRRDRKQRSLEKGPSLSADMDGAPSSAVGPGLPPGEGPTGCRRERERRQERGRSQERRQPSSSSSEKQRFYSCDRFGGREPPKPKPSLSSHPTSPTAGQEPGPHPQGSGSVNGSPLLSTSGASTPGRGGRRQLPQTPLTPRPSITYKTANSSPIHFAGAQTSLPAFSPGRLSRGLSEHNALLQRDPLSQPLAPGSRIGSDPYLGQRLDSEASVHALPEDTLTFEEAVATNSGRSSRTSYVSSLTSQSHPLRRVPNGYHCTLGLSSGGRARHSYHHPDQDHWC
T6 sequence (Q02410 whole entry): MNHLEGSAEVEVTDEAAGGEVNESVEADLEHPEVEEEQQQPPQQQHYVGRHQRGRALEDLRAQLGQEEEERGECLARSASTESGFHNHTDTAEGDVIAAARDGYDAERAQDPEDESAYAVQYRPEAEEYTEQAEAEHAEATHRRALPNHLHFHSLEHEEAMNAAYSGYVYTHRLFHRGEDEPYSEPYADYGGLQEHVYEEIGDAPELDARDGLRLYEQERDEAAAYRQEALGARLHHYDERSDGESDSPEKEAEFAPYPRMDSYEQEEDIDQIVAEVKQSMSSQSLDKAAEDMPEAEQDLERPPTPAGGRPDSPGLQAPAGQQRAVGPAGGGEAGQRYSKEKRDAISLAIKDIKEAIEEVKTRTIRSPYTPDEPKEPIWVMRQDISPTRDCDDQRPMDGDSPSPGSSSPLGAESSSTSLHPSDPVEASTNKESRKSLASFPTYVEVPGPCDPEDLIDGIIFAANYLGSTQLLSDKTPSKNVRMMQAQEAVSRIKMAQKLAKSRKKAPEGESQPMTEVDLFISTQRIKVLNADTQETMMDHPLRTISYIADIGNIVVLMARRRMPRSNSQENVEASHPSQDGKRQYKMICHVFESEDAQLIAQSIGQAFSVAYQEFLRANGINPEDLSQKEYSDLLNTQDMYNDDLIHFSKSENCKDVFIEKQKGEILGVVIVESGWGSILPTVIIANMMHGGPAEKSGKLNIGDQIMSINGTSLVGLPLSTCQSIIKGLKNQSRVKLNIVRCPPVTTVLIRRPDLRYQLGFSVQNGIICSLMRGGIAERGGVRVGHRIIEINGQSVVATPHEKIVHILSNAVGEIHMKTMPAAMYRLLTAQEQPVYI

SUMO E1/E2 = SUMO E1/E2 (Homo sapiens, UniProt P63279+Q9UBE0+Q9UBT2); assay: SAR analysis of SUMOylation using HTRF in an in-Vitro dose response assay. [Related pubchem assays (depositor defined):AID2006, AID2011, AID2018, AID2069, AID2658]; type: functional
SUMO E1/E2, sequence (Q9UBE0 whole entry): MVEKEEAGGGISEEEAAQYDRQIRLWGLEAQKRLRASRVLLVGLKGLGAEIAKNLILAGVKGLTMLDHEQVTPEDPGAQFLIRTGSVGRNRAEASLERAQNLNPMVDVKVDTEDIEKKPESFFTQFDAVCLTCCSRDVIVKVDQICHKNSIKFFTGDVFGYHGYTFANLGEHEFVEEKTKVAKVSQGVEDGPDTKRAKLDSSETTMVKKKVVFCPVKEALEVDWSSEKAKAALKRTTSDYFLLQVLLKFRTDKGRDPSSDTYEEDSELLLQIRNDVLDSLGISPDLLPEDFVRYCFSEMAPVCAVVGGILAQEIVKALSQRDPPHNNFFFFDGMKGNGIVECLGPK
SUMO E1/E2, sequence (Q9UBT2 whole entry): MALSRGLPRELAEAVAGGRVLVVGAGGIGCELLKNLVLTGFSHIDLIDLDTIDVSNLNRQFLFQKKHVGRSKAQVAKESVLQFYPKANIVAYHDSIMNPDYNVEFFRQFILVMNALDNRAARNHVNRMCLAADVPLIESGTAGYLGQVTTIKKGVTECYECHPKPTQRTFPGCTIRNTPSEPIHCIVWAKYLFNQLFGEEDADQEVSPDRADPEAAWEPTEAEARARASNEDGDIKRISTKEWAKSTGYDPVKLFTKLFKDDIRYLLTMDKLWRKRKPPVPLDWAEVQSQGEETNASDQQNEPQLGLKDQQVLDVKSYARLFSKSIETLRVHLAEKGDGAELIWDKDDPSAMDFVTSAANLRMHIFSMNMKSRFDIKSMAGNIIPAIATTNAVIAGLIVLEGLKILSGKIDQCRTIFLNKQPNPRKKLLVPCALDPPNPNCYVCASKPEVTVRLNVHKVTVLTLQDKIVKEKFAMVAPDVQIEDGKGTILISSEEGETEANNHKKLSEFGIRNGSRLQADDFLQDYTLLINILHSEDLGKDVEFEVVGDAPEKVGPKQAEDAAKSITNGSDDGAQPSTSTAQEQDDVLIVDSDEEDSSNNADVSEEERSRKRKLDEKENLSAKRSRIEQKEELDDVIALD
SUMO E1/E2, sequence (P63279 whole entry): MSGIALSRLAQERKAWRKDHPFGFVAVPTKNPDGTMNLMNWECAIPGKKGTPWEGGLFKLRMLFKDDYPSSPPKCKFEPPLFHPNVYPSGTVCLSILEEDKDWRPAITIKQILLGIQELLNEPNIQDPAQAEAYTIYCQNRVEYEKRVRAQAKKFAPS

[24] = target: T6, Voltage-gated N-type calcium channel alpha-1B subunit/Amyloid beta A4 precursor protein-binding family A member 1; assay: disruptors of Mint-PDZ/N-type channel peptide interaction – biochemical, HTRF, SAR follow-up (AID 2489); type: functional
[25] = target: T4, Kappa-type opioid receptor; assay: SAR analysis of small molecule agonists of the kappa opioid receptor via a luminescent beta-arrestin assay - Set 3. [Related pubchem assays (depositor defined):AID1777, AID1785, AID1786, AID1966, AID2133, AID2136, AID2284, AID2500]; type: functional

COC(=O)CNc1nnc(S)nc1O
EC50 [1]: 1.61 µM (active) | EC50 [2]: 2.15 µM (active) | EC50 [3]: 53.6 µM (not active)

O=C1c2c(Cl)c(Cl)c(Cl)c(Cl)c2C(=O)N1c1nc(Cc2ccccc2)n[nH]1
IC50 [4]: > 100 µM (inactive) | IC50 [5]: > 100 µM (not active)

O=C1NC(=S)N(C2CC2)C(=O)/C1=C/c1ccc2c(c1)CCN2CCCCl
CC50 [6]: 85.4 µM (active) | IC50 [7]: 2.61 µM (active) | IC50 (Coagulation factor XII): > 50 µM (inactive) | IC50 [8]: 95.6 µM (active)

CCCC[N@+]12CC[C@H](CC1)C(=C(c1ccccc1)c1ccccc1)C2
IC50 [9]: 2.19 µM (active) | IC50 [10]: 2.16 µM (active)

Oc1ccc(N=Nc2ccc3c(c2)OCCO3)c2ncccc12
IC50 [11]: > 32 µM | EC50 [12]: 0.872 µM (active) | EC50 [13]: 4.43 µM (active) | IC50 (Exodeoxyribonuclease V): > 119 µM (inactive) | EC50 [14]: 11.7 µM (active) | EC50 [15]: > 180 µM (inactive) | EC50 (Beta-galactosidase): 25.3 µM (active) | EC50 [16]: 0.682 µM (active) | EC50 [17]: 0.91 µM (active) | IC50 [18]: 4.93 µM (active) | EC50 [19]: > 150 µM (inconclusive) | AC50 (INS1): 2.32 µM (active) | IC50 [20]: > 119 µM (inactive) | EC50 (Streptococcus): 2.27 µM (active)

CC(C)(C)C(=O)c1cn(CC(=O)NCc2ccco2)c2ccccc12
EC50 (H4): 13.2 µM (active) | IC50 [9]: 4.75 µM (active) | EC50 [21]: 14.9 µM (active) | IC50 [10]: 3.56 µM (active) | EC50 [22]: 15.9 µM (active)

COc1ccccc1NC(=O)COC(=O)c1cc(-c2ccco2)nc2ccccc12
IC50 [23]: 6.66 µM (active) and 12.5 µM (active) | IC50 (SUMO E1/E2): 16 µM (active) and 56.7 µM (active) | IC50 [24]: 21.5 µM (active) and > 56.8 µM (inactive)

COc1ccc(CNC(=O)COC(=O)c2cc(-c3ccco3)nc3ccccc23)c(OC)c1
IC50 [23]: 11.1 µM (active) | IC50 (SUMO E1/E2): 14.7 µM (active) | IC50 [24]: 23 µM (active)

O=C(c1ccccn1)N(Cc1cc2cc(Cl)ccc2[nH]c1=O)CC1CC1
EC50 [25]: > 20 µM (inactive)

COC(=O)/C(=C/Nc1ccccc1)[N+](=O)[O-]
IC50 (Coagulation factor XII): > 50 µM (inactive)
